Six compounds from PubChem BioAssay (NCI) can be followed below.

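Values below derive from 48-hour exposures of cells grown in 96-well plates, with endpoints linearly interpolated between the two concentrations bracketing the appropriate inhibition level. The concentration for 50% growth inhibition is given as GI50. Definition used: TGI = concentration required for complete inhibition of growth.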

For one experiment, the system named is BT-549 breast. The experiment is described as follows: NCI-60 cell line screen, 48 h.
The compound `N#Cc1c(NC(=S)NC(=O)c2ccccc2)nc2c(c1-c1ccccc1)CCC2` had a TGI above 100 µM.
Still for that read-out and setting: then `O=C(Nc1ccc(I)cc1C(=O)NCCO)c1cccs1`, with above 100 µM.
Same read-out and setting: as for `CCn1cc(C(c2ccc(Cl)cc2)n2ccnc2)c2cc(Br)ccc21` (stereo unspecified), the figure is 31.9 µM; as for `CSC1=Nc2ccccc2N(C)c2c1c(-c1ccccc1)nn2C`, above 100 µM.

For a further experiment, the system named is HCC-2998 colon. As to the kind of experiment: NCI-60 cell line screen, 48 h.
`O=C(Nc1ccc(I)cc1C(=O)NCCO)c1cccs1` registered a TGI above 100 µM.
On to `CCn1cc(C(c2ccc(Cl)cc2)n2ccnc2)c2cc(Br)ccc21` (stereo unspecified), for which the TGI was determined as 29 µM.
Still for that read-out and setting: as for `CSC1=Nc2ccccc2N(C)c2c1c(-c1ccccc1)nn2C`, the figure is 56 µM.
For `O=[Se]([O-])c1ccccc1.O=[Se]([O-])c1ccccc1.[OH3+].[OH3+].[Pt+2]`, the GI50 was 16.6 µM and the TGI came to 55.9 µM.
For the compound `COC1OC(=O)[C@H]2O[N+]([O-])=C(C)[C@@H]12` (stereo partly specified), the TGI is above 100 µM.

A further experiment concerns HL-60(TB) leukemia. As to the kind of experiment: NCI-60 cell line screen, 48 h.
For the compound `N#Cc1c(NC(=S)NC(=O)c2ccccc2)nc2c(c1-c1ccccc1)CCC2`, the TGI is above 100 µM.
Same read-out and setting: then `O=C(Nc1ccc(I)cc1C(=O)NCCO)c1cccs1`, with above 100 µM.
On the same count and under the same terms, then `CSC1=Nc2ccccc2N(C)c2c1c(-c1ccccc1)nn2C`, with 34.3 µM.
On to `O=[Se]([O-])c1ccccc1.O=[Se]([O-])c1ccccc1.[OH3+].[OH3+].[Pt+2]`, for which the GI50 is 2.19 µM and the TGI was 5.66 µM.
Take `COC1OC(=O)[C@H]2O[N+]([O-])=C(C)[C@@H]12` (stereo partly specified): the TGI was above 100 µM.

The test system of another experiment is M14 melanoma. As to the kind of experiment: NCI-60 cell line screen, 48 h.
As for `N#Cc1c(NC(=S)NC(=O)c2ccccc2)nc2c(c1-c1ccccc1)CCC2`, the TGI is above 100 µM.
In the case of `O=C(Nc1ccc(I)cc1C(=O)NCCO)c1cccs1`, the TGI is above 100 µM.
The same measure, in the same setting: then `CCn1cc(C(c2ccc(Cl)cc2)n2ccnc2)c2cc(Br)ccc21` (stereo unspecified), with 26.7 µM.
Compound `CSC1=Nc2ccccc2N(C)c2c1c(-c1ccccc1)nn2C` returned a TGI above 100 µM.

The subject of the next experiment is MCF7 breast. The experiment is described as follows: NCI-60 cell line screen, 48 h.
The compound `O=C(Nc1ccc(I)cc1C(=O)NCCO)c1cccs1` returned a TGI above 100 µM.
Same read-out and setting: then `CCn1cc(C(c2ccc(Cl)cc2)n2ccnc2)c2cc(Br)ccc21` (stereo unspecified), with 29.8 µM; and `CSC1=Nc2ccccc2N(C)c2c1c(-c1ccccc1)nn2C`, with above 100 µM.
Take `O=[Se]([O-])c1ccccc1.O=[Se]([O-])c1ccccc1.[OH3+].[OH3+].[Pt+2]`: the GI50 is 6.42 µM and the TGI turned out to be 37.2 µM.
Compound `COC1OC(=O)[C@H]2O[N+]([O-])=C(C)[C@@H]12` (stereo partly specified) gave a TGI above 100 µM.

A further experiment relates to NCI-H226 lung. As to the kind of experiment: NCI-60 cell line screen, 48 h.
`O=C(Nc1ccc(I)cc1C(=O)NCCO)c1cccs1` yielded a TGI above 100 µM.
The same measure, in the same setting: then `CCn1cc(C(c2ccc(Cl)cc2)n2ccnc2)c2cc(Br)ccc21` (stereo unspecified), with 76.5 µM.
For the compound `O=[Se]([O-])c1ccccc1.O=[Se]([O-])c1ccccc1.[OH3+].[OH3+].[Pt+2]`, the GI50 was 12.9 µM and the TGI turned out to be 52.5 µM.
`COC1OC(=O)[C@H]2O[N+]([O-])=C(C)[C@@H]12` (stereo partly specified) had a TGI above 100 µM.

Another experiment relates to NCI-H522 lung. The experiment is described as follows: NCI-60 cell line screen, 48 h.
Compound `O=C(Nc1ccc(I)cc1C(=O)NCCO)c1cccs1` gave a TGI above 100 µM.
Consider `CSC1=Nc2ccccc2N(C)c2c1c(-c1ccccc1)nn2C`, for which the TGI is above 100 µM.
As for `O=[Se]([O-])c1ccccc1.O=[Se]([O-])c1ccccc1.[OH3+].[OH3+].[Pt+2]`, the GI50 is 2.51 µM and the TGI was 13.4 µM.
The compound `COC1OC(=O)[C@H]2O[N+]([O-])=C(C)[C@@H]12` (stereo partly specified) had a TGI above 100 µM.

In the next experiment the test system is PC-3 prostate. As to the kind of experiment: NCI-60 cell line screen, 48 h.
For the compound `N#Cc1c(NC(=S)NC(=O)c2ccccc2)nc2c(c1-c1ccccc1)CCC2`, the TGI is above 100 µM.
Regarding `O=C(Nc1ccc(I)cc1C(=O)NCCO)c1cccs1`, the TGI was above 100 µM.
`CCn1cc(C(c2ccc(Cl)cc2)n2ccnc2)c2cc(Br)ccc21` (stereo unspecified): the TGI was found to be 22.8 µM.
For `CSC1=Nc2ccccc2N(C)c2c1c(-c1ccccc1)nn2C`, the TGI was above 100 µM.

A further experiment concerns RXF 393 renal. As to the kind of experiment: NCI-60 cell line screen, 48 h.
Consider `O=C(Nc1ccc(I)cc1C(=O)NCCO)c1cccs1`, for which the TGI is above 100 µM.
On the same count and under the same terms, as for `CCn1cc(C(c2ccc(Cl)cc2)n2ccnc2)c2cc(Br)ccc21` (stereo unspecified), the figure is 29.9 µM.
The same measure, in the same setting: as for `CSC1=Nc2ccccc2N(C)c2c1c(-c1ccccc1)nn2C`, the figure is above 100 µM.
As for `O=[Se]([O-])c1ccccc1.O=[Se]([O-])c1ccccc1.[OH3+].[OH3+].[Pt+2]`, the GI50 is 22.7 µM and the TGI is 40.6 µM.
As for `COC1OC(=O)[C@H]2O[N+]([O-])=C(C)[C@@H]12` (stereo partly specified), the TGI was above 100 µM.

The next experiment concerns SK-MEL-28 melanoma. As to the kind of experiment: NCI-60 cell line screen, 48 h.
Compound `O=C(Nc1ccc(I)cc1C(=O)NCCO)c1cccs1` yielded a TGI above 100 µM.
In the case of `CSC1=Nc2ccccc2N(C)c2c1c(-c1ccccc1)nn2C`, the TGI was above 100 µM.
For the compound `O=[Se]([O-])c1ccccc1.O=[Se]([O-])c1ccccc1.[OH3+].[OH3+].[Pt+2]`, the GI50 is 10.8 µM and the TGI amounted to 36.1 µM.
Compound `COC1OC(=O)[C@H]2O[N+]([O-])=C(C)[C@@H]12` (stereo partly specified) showed a TGI above 100 µM.

For a further experiment, the system named is SNB-19 CNS. The experiment is described as follows: NCI-60 cell line screen, 48 h.
For `N#Cc1c(NC(=S)NC(=O)c2ccccc2)nc2c(c1-c1ccccc1)CCC2`, the TGI was above 100 µM.
Regarding `O=C(Nc1ccc(I)cc1C(=O)NCCO)c1cccs1`, the TGI is above 100 µM.
Turning to `CCn1cc(C(c2ccc(Cl)cc2)n2ccnc2)c2cc(Br)ccc21` (stereo unspecified), the TGI is 28.3 µM.
Take `O=[Se]([O-])c1ccccc1.O=[Se]([O-])c1ccccc1.[OH3+].[OH3+].[Pt+2]`: the GI50 was 10.9 µM and the TGI was 33.7 µM.
For the compound `COC1OC(=O)[C@H]2O[N+]([O-])=C(C)[C@@H]12` (stereo partly specified), the TGI is above 100 µM.

The next experiment relates to SR leukemia. As to the kind of experiment: NCI-60 cell line screen, 48 h.
The compound `N#Cc1c(NC(=S)NC(=O)c2ccccc2)nc2c(c1-c1ccccc1)CCC2` displayed a TGI above 100 µM.
On the same count and under the same terms, then `O=C(Nc1ccc(I)cc1C(=O)NCCO)c1cccs1`, with above 100 µM; and `CCn1cc(C(c2ccc(Cl)cc2)n2ccnc2)c2cc(Br)ccc21` (stereo unspecified), with 36.8 µM; and `CSC1=Nc2ccccc2N(C)c2c1c(-c1ccccc1)nn2C`, with 95 µM.
